The source of these data is US12692274B2, “Tetrahydroisoquinoline derivatives for the treatment of red blood disorders and inflammatory diseases” (Sanofi, priority 2020, dated 2026).

Assay [1] deals with NQO1 activation in BEAS-2B cells. The assay can be described thus: BEAS-2B cellular MTT assay of NQO1 activation, 0% HSA. The format is cell-based. The method, then: (§1) The growth rate of the BEAS-2B cells changed based on the lot of BEGM SingleQuots in the BEGM media. The cell growth rate was determined for each lot of SingleQuots. Ideally, cells were thawed into media with the new lot of SingleQuots and grown for two passages before testing; however, growing an active culture in the new lot of media for two to three passages before testing was also acceptable. Until the cell growth rate was determined, cells were seeded at different densities (cells/cm^2) in multiple tissue culture flasks in order to avoid the cells becoming more than 70% confluent. Cells should not go above 70% confluent as the cells differentiate when they become confluent. After the cells were grown in the new lot of media as described above, the number of cells per well needed to seed in the collagen plates was determined by seeding different numbers of cells per well and incubating for 48 hours. Cell confluency was checked after 48 hours and a cell number that results in just below to just above confluency was chosen for future plate seeding. Cell confluency in the assay plate was 95-100% confluent after 48 hours.
(§2) Cell media consists of BEBM basal media with the BEGM SingleQuots added. SingleQuots vials were thawed in the tissue culture hood, and GA-1000 (Gentamicin-Amphotericin) was not added.
(§3) If complete media was to be used immediately, BEBM basal media was warmed to room temperature in the hood, but not as high as 37° C. When the media was made for future use, SingleQuots were added to cold BEBM. One at a time, the SingleQuots components (except GA-1000) were added to the BEBM media. After removal of each component from the vial, the vial was rinsed with 0.5-1 mL of BEBM (depending on the volume the vial could hold) and added to the bottle of BEBM. Once all components were added, the label that comes with the SingleQuots kit was put on the bottle of media and the date was recorded. The bottle of media was mixed by gentle shaking. The media was not filtered. This media was stored at 4° C., with any leftover media disposed of one month after the date the SingleQuots were added.
(§4) BEAS-2B Cell Splitting Protocol:
(§5) First, Trypsin was warmed to 37° C. in the water bath. The media was then warmed to room temperature by letting it sit in the tissue culture hood, but not as high as 37° C. The media was aspirated from flask(s) and the flask(s) were washed with PBS. From 1 to 1.5 mL of warm trypsin were added to each flask and incubated at 37° C. until cells came off the flask on their own (~8-10 minutes), with no vigorous tapping on the flask to detach the cells.
(§6) Media was added to each flask to a total volume of 8-10 mL per flask and transferred to 15 mL conical tube(s). The cells were spun down at 120 g for 5 minutes, level 5 brake. The cells can be spun down between 100 and 150 g. Next the media was aspirated and the cell pellet was resuspended in fresh media by pipetting up and down and flicking the tube side to side. Any clumps of cells that remained were allowed to settle to the bottom of the tube before the top suspension was transferred into another tube, leaving about 1 mL of media in the original tube. The 1 mL of media and cell clumps were mixed with a single channel p1000 pipette, and any remaining clumps were removed before adding the cells in suspension to the other tube. The suspension was mixed with a pipette, an aliquot was removed, and the cells were counted. The amount of cells/cm^2 desired was calculated and the required volume of cells was added to tissue culture flasks. For example, use of SingleQuots with ~6000 cells/cm^2 was appropriate for a three day incubation and ~3000 cells/cm^2 for a five day incubation. Optimal cell density differed depending on lot of SingleQuots. The flasks were incubated at 37° C. in 5% CO2.
(§7) Day One: Seeding BEAS-2B Cells in Collagen Plates:
(§8) Plate(s) were either seeded with 0.3% or 0% HSA. While the protocol was similar for both conditions any differences are noted herein below. […]
On the technique in general: Formazan colour is commonly taken as a measure of viable cells.

Assay [2] has the same test system. Description: BEAS-2B cellular MTT assay of NQO1 activation, 0.3% HSA. Format: cell-based. As for the experimental part:
as §1, §2, §3, §4, §5, §6, §7, §8

Where [3] appears, read: serum free, read-out: BEAS EC50 (nM) serum free.
The mark [4] stands for this setting: Homo sapiens, Serum Free W, read-out: BEAS EC50 (nM) Serum Free W.
The mark [5] stands for this setting: Serum Free W, read-out: BEAS EC50 (nM) Serum Free W.
The mark [6] stands for this setting: BEAS+ W, read-out: BEAS+ W EC50.
The mark [7] stands for this setting: Homo sapiens, BEAS+ W, read-out: BEAS+ W EC50.
Setting [8] is: Homo sapiens, serum free, read-out: BEAS EC50 (nM) serum free.
Setting [9] is: Homo sapiens, BEAS+, read-out: BEAS+ EC50.

SMILES strings stand for the structures. Values joined by “and” are separate entries in the source; they are usually repeats but may differ in a detail not shown here. Equal entries are not always repeated.

In general, EC50 refers to the concentration needed to bring the measured effect to its halfway point.

For `Cc1c2ccc3c1nnn3CCCCCCc1ccc(cc1)C(=O)N1CCc3ccc(cc3C1)[C@@H]2[C@@H](C)C(=O)O` (racemic) [Compound 201], the EC50 was 0.3 nM and 0.1 nM in assay [1] (setting [3]); 0.5 nM and 0.2 nM in assay [2] (BEAS+, read-out: BEAS+ EC50).
As for `Cc1cc2ncc1[C@H](C(C)(C)C(=O)O)c1ccc3c(c1)CN(CC3)C(=O)c1ccc(cc1)CCCCCO2` [Compound 53], the EC50 in assay [1] (setting [4]) is 8.7 nM; in assay [1] (setting [5]), 12.3 nM; in assay [2] (setting [6]), 47.8 nM; in assay [2] (setting [7]), 38.5 nM.
In the case of `Cc1cc2ncc1[C@@H](C(C)(C)C(=O)O)c1ccc3c(c1)CN(CC3)C(=O)c1ccc(cc1)CCCCCO2` [Compound 54], the results for the EC50 in assay [1] (setting [4]) and in assay [1] (setting [5]) were 0.2 nM and 0.1 nM, respectively.
Take `C[C@@H](C(=O)O)[C@H]1c2ccc(nc2)OCCCCCc2ccc(cc2)C(=O)N2CCc3ccc1cc3C2` [Compound 57]: the figures for the half-maximal effective concentration (EC50) in assay [1] (setting [5]) and in assay [2] (setting [6]) were 0.3 nM and 0.6 nM, respectively.
For `Cc1cc2cnc1OCCCCCc1ccc(cc1)C(=O)N1CCc3ccc(cc3C1)[C@@H]2[C@H](C)C(=O)O` [Compound 71], the half-maximal effective concentration (EC50) in assay [1] (setting [4]) was found to be 3.4 nM; in assay [1] (setting [5]), 3.3 nM; in assay [2] (setting [6]), 13.2 nM; in assay [2] (setting [7]) it was 10.5 nM.
On the same counts, the results for `Cc1cc2cnc1OCCCCCc1ccc(cc1)C(=O)N1CCc3ccc(cc3C1)[C@@H]2[C@@H](C)C(=O)O` [Compound 72] are more than 1000 nM, 1930 nM, 7720 nM and 9870 nM.
On the same counts, the results for `COc1cc2ncc1[C@@H](CC(=O)O)c1ccc3c(c1)CN(CC3)C(=O)c1ccc(cc1)CCCCCO2` [Compound 73] are 287 nM, 373 nM, 590 nM and 464 nM.
On the same counts, the results for `COc1cc2ncc1[C@H](CC(=O)O)c1ccc3c(c1)CN(CC3)C(=O)c1ccc(cc1)CCCCCO2` [Compound 79] are 733 nM, 810 nM, 2040 nM and 1720 nM.
Turning to `Cc1cc2ncc1[C@@H]([C@@H](C)C(=O)O)c1ccc3c(c1)CN(CC3)C(=O)c1ccc(cc1)CCCCCO2` [Compound 82], the EC50 came out at 594 nM in assay [1] (setting [4]), 641 nM in assay [1] (setting [5]), 1760 nM in assay [2] (setting [6]) and 1960 nM in assay [2] (setting [7]).
On the same counts, the results for `Cc1cc2ncc1[C@@H]([C@H](C)C(=O)O)c1ccc3c(c1)CN(CC3)C(=O)c1ccc(cc1)CCCCCO2` [Compound 84] are 7.4 nM, 6.2 nM, 30 nM and 26.3 nM.
Consider `COc1cc2ccc1C(=O)N1CCc3ccc(cc3C1)[C@H](CC(=O)O)c1ccc3c(nnn3CCCCCC2)c1C` [Compound 108], for which the EC50 in assay [1] (setting [4]) turned out to be 7.2 nM; in assay [1] (setting [5]), 7.9 nM.
For `COc1cc2ccc1C(=O)N1CCc3ccc(cc3C1)[C@@H](CC(=O)O)c1ccc3c(nnn3CCCCCC2)c1C` [Compound 109], the EC50 in assay [1] (setting [4]) worked out at 32.1 nM; in assay [1] (setting [5]), 38 nM; in assay [2] (setting [6]), 100 nM; in assay [2] (setting [7]), 172 nM.
On the same counts, the results for `Cc1c2ccc3c1nnn3CCCCCc1ccc(cc1)C(=O)N1CCc3ccc(cc3C1)[C@@H]2[C@H](C)C(=O)O` [Compound 116] are 130 nM, 84.8 nM, 252 nM and 212 nM.
In the case of `Cc1c2ccc3c1nnn3CCCCCCc1ccc(cc1)C(=O)N1CCc3ccc(cc3C1)[C@@H]2[C@@H](C)C(=O)O` [Compound 132], the figures for the EC50 in assay [1] (setting [4]) and in assay [2] (setting [7]) were more than 1000 nM and more than 10000 nM, respectively.
For the molecule `Cc1c2ccc3c1nnn3CCCCCCOc1ccc(c(F)c1)C(=O)N1CCc3ccc(cc3C1)[C@H]2[C@@H](C)C(=O)O` [Compound 152], the EC50 in assay [1] (setting [8]) and in assay [2] (setting [9]) was more than 10000 nM throughout.
Turning to `Cc1c2ccc3c1nnn3CCCCCCOc1ccc(c(F)c1)C(=O)N1CCc3ccc(cc3C1)[C@H]2[C@H](C)C(=O)O` [Compound 156], the EC50 in assay [1] (setting [8]) amounted to 55.9 nM; in assay [1] (setting [3]) it was 44.3 nM; in assay [2] (BEAS+, read-out: BEAS+ EC50), 171 nM; in assay [2] (setting [9]), 201 nM.
On the same counts, the results for `Cc1c2ccc3c1nnn3CCCCCc1ccc(cc1)C(=O)N1CCc3ccc(cc3C1)[C@@H]2[C@H](C)C(=O)O` [Compound 160] are 9.4 nM, 7 nM, 13.2 nM and 12.4 nM.
On the same counts, the results for `Cc1c2ccc3c1nnn3CCCCCCc1ccc(cc1)C(=O)N1CCc3ccc(cc3C1)[C@@H]2[C@@H](C)C(=O)O` [Compound 176] are 0.5 nM, 0.8 nM, 0.2 nM and 0.1 nM.
On the same counts, the results for `Cc1c2ccc3c1nnn3CCCCCCOc1ccc(c(F)c1)C(=O)N1CCc3ccc(cc3C1)[C@@H]2[C@H](C)C(=O)O` [Compound 177] are 43.7 nM, 36.1 nM, 140 nM and 107 nM.
As to `Cc1c2ccc3c1nnn3CCCCCCOc1ccc(c(F)c1)C(=O)N1CCc3ccc(cc3C1)[C@@H]2[C@@H](C)C(=O)O` [Compound 181], the EC50 stood at 3.6 nM in assay [1] (setting [8]); 3.4 nM in assay [1] (setting [3]); 6.6 nM in assay [2] (BEAS+, read-out: BEAS+ EC50); 5.3 nM in assay [2] (setting [9]).
On the same counts, the results for `COc1cc2ccc1C(=O)N1CCc3ccc(cc3C1)C(CC(=O)O)c1ccc3c(nnn3CCCCCC2)c1C` (stereo not shown) [Compound 188] are 9.4 nM, 9.1 nM, 14.9 nM and 15.3 nM.
On the same counts, the results for `Cc1cc2ccc1C(=O)N1CCc3ccc(cc3C1)[C@H](CC(=O)O)c1ccc3c(nnn3CCCCCC2)c1C` [Compound 245] are 19.4 nM, 18.5 nM, 37.6 nM and 24.8 nM.
On the same counts, the results for `Cc1c2ccc3c1nnn3CCCCCCOc1ccc(c(F)c1)C(=O)N1CCc3ccc(cc3C1)[C@H]2CC(=O)O` [Compound 255] are 4.8 nM, 4 nM, 289 nM and 288 nM.
As to `Cc1c2ccc3c1nnn3CCCCCCOc1ccc(c(F)c1)C(=O)N1CCc3ccc(cc3C1)[C@@H]2CC(=O)O` [Compound 257], the concentration for a half-maximal effect (EC50) worked out at 7.4 nM in assay [1] (setting [8]); 4.3 nM in assay [1] (setting [3]); 146 nM in assay [2] (BEAS+, read-out: BEAS+ EC50); 228 nM in assay [2] (setting [9]).
As to `CC(C)(C(=O)O)C1c2ccc3c(c2)CN(CC3)C(=O)c2ccc(cc2)OCCCCCCn2nnc3cc1ccc32` (stereo not shown) [Compound 287], the EC50 in assay [1] (setting [8]) stood at 3.1 nM; in assay [2] (setting [9]), 112 nM.
As to `Cc1cc2ccc1C(=O)N1CCc3ccc(cc3C1)C(CC(=O)O)c1ccc3c(nnn3CCCCCC2)c1C` (stereo not shown) [Compound 295], the EC50 in assay [1] (setting [8]) was 0.2 nM; in assay [2] (setting [9]), 0.7 nM.
On the same counts, the results for `Cc1c2ccc3c1nnn3CCCCCCOc1ccc(c(F)c1)C(=O)N1CCc3ccc(cc3C1)C2CC(=O)O` (stereo not shown) [Compound 317] are 0.6 nM and 11.9 nM.
On the same counts, the results for `O=C(O)CC1c2ccc3c(c2)CN(CC3)C(=O)c2ccc(cc2)OCCCCCCn2nnc3cc1ccc32` (stereo not shown) [Compound 329] are 403 nM and 1230 nM.
As to `Cc1cc2ccc1C(=O)N1CCc3ccc(cc3C1)C(CC(=O)O)c1ccc3c(c1)nnn3CCCCCO2` (stereo not shown) [Compound 330], the EC50 in assay [1] (setting [8]) was found to be 1070 nM; in assay [2] (setting [9]) it was 862 nM.
